Laboratory results taken from patent publication US7049415B2 (priority 2002, dated 2006).

System: HIV-1
Conditions: cMAGI/MAGI cells; for IC50: 50% reduction in infectious virus titer; for IC90: 90% reduction in infectious virus titer
Description: The number of stained nuclei can thus be interpreted as equal to the number of infectious virions in the challenge inoculum if there is only one round of infection prior to staining.

Pegylated T20 with PEG10K-butanoaldehyde [Example 2]
IC50: 0.266 µg/mL
IC90: 2.536 µg/mL

Pegylated T20 with mPEG10k-propionaldehyde [Example 3]
IC50: 0.261 µg/mL
IC90: 3.074 µg/mL
